Experimental data: patent publication US11040035B2, “3-oxo-2,6-diphenyl-2,3-dihydropyridazine-4-carboxamides” (BAYER PHARMA AKTIENGESELLSCHAFT, priority 2016, dated 2021)

How the values were obtained:
AHR [1] = target: T1, AHR (Homo sapiens, UniProt P35869); assay: In vitro assay 2: agonism in human cell line (transactivation assay); conditions: Assay 2: AHR-luc Hum Agonism IC50 [M], no kynurenic acid, 20 hours, firefly luciferase
T1 sequence (P35869 11-848): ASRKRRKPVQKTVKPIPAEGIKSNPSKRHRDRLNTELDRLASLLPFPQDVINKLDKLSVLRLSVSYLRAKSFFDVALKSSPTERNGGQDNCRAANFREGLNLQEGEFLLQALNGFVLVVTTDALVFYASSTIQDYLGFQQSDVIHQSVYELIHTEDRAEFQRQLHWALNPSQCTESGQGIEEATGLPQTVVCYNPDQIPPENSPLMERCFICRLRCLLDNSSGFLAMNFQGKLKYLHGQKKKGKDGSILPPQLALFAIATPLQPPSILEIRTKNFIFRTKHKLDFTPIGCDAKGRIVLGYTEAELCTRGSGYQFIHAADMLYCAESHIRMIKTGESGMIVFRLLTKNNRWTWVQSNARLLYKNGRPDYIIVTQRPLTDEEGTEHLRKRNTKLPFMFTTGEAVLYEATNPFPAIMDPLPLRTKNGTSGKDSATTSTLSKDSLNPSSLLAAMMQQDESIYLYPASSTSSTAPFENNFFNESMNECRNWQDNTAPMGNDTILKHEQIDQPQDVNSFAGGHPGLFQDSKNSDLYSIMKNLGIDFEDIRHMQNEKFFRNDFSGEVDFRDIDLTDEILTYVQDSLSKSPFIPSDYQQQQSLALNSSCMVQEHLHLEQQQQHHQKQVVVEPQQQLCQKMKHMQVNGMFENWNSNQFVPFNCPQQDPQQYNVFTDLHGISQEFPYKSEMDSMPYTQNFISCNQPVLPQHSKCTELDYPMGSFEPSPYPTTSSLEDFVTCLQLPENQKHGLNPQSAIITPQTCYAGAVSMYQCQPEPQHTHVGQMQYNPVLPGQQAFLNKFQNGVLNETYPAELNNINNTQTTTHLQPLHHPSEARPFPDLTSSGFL

AHR [2] = target: T1, AHR; assay: In vitro assay 1: antagonism in human cell line (transactivation assay, kynurenic acid prestimulated); conditions: Assay 1: AHR-luc Hum Antagonism IC50 [M], 150 μM kynurenic acid, 20 hours, firefly luciferase

SMILES | IC50 (AHR [1]) [M] | IC50 (AHR [2]) [M]
CC[C@@H](CO)NC(=O)c1cc(-c2ccc(OC)cc2)nn(-c2cccc(F)c2)c1=O [Example 298, 2-(3-Fluorophenyl)-N-[(2S)-1-hydroxybutan-2-yl]-6-(4-methoxyphenyl)-3-oxo-2,3-dihydropyridazine-4-carboxamide] | > 2e-05 | 3.18e-08
O=C(NCC(O)C(F)(F)F)c1cc(-c2ccc(Cl)c(Cl)c2)nn(-c2cccc(F)c2)c1=O (stereo not drawn) [Example 302, 6-(3,4-Dichlorophenyl)-2-(3-fluorophenyl)-3-oxo-N-(3,3,3-trifluoro-2-hydroxypropyl)-2,3-dihydropyridazine-4-carboxamide] | > 2e-05 | 2.29e-07
COCC(O)CNC(=O)c1cc(-c2ccc(Cl)c(Cl)c2)nn(-c2cccc(F)c2)c1=O (stereo not drawn) [Example 303, 6-(3,4-Dichlorophenyl)-2-(3-fluorophenyl)-N-(2-hydroxy-3-methoxypropyl)-3-oxo-2,3-dihydropyridazine-4-carboxamide] | > 2e-05 | 8.73e-07
CC(O)C(C)NC(=O)c1cc(-c2ccc(Cl)c(Cl)c2)nn(-c2cccc(F)c2)c1=O (stereo not drawn) [Example 304, 6-(3,4-Dichlorophenyl)-2-(3-fluorophenyl)-N-(3-hydroxybutan-2-yl)-3-oxo-2,3-dihydropyridazine-4-carboxamide] | > 2e-05 | 2.75e-07
O=C(NC(CO)C1CCOC1)c1cc(-c2ccc(Cl)c(Cl)c2)nn(-c2cccc(F)c2)c1=O (stereo not drawn) [Example 307, 6-(3,4-Dichlorophenyl)-2-(3-fluorophenyl)-N-[2-hydroxy-1-(tetrahydrofuran-3-yl)ethyl]-3-oxo-2,3-dihydropyridazine-4-carboxamide] | > 2e-05 | 2.22e-07
C[C@@H](CO)NC(=O)c1cc(-c2ccc(Cl)cc2)nn(-c2cc(Cl)cc(Cl)c2)c1=O [Example 309, 6-(4-Chlorophenyl)-2-(3,5-dichlorophenyl)-N-[(2S)-1-hydroxypropan-2-yl]-3-oxo-2,3-dihydropyridazine-4-carboxamide] | > 2e-05 | 9.87e-07
O=C(NC(CO)C1CCOC1)c1cc(-c2ccc(Cl)cc2)nn(-c2cc(Cl)cc(Cl)c2)c1=O (stereo not drawn) [Example 310, 6-(4-Chlorophenyl)-2-(3,5-dichlorophenyl)-N-[2-hydroxy-1-(tetrahydrofuran-3-yl)ethyl]-3-oxo-2,3-dihydropyridazine-4-carboxamide] | > 2e-05 | 4.34e-07
O=C(NCC(O)C(F)(F)F)c1cc(-c2ccc(Cl)cc2)nn(-c2cc(Cl)cc(Cl)c2)c1=O (stereo not drawn) [Example 311, 6-(4-Chlorophenyl)-2-(3,5-dichlorophenyl)-3-oxo-N-(3,3,3-trifluoro-2-hydroxypropyl)-2,3-dihydropyridazine-4-carboxamide] | > 2e-05 | 6.6e-07
O=C(NCCC1(O)CCCCC1)c1cc(-c2ccc(Cl)cc2)nn(-c2cccc(F)c2)c1=O [Example 320, 6-(4-chlorophenyl)-2-(3-fluorophenyl)-N-[2-(1-hydroxycyclohexyl)ethyl]-3-oxo-2,3-dihydropyridazine-4-carboxamide] | > 2e-05 | 3.62e-07
CC(C)(O)CCNC(=O)c1cc(-c2ccc(Cl)cc2)nn(-c2cccc(F)c2)c1=O [Example 321, 6-(4-chlorophenyl)-2-(3-fluorophenyl)-N-(3-hydroxy-3-methylbutyl)-3-oxo-2,3-dihydropyridazine-4-carboxamide] | > 2e-05 | 2.64e-07
O=C(NCC1(O)CCOCC1)c1cc(-c2ccc(Cl)cc2)nn(-c2cccc(F)c2)c1=O [Example 325, 6-(4-chlorophenyl)-2-(3-fluorophenyl)-N-[(4-hydroxytetrahydro-2H-pyran-4-yl)methyl]-3-oxo-2,3-dihydropyridazine-4-carboxamide] | > 2e-05 | 9.65e-08
O=C(NCC1(O)CCCC1)c1cc(-c2ccc(Cl)cc2)nn(-c2cccc(F)c2)c1=O [Example 326, 6-(4-chlorophenyl)-2-(3-fluorophenyl)-N-[(1-hydroxycyclopentyl)methyl]-3-oxo-2,3-dihydropyridazine-4-carboxamide] | > 2e-05 | 6.47e-08
